Data taken from publication PMC5814268, “Antitumor activity of HPA3P through RIPK3-dependent regulated necrotic cell death in colon cancer” (Oncotarget, 2018).

Assays:
Type in all cases: cell-based, human
[1] = system: cleaved-caspase 3 and cleaved-PARP; assay: Western blot for apoptosis markers in colon cancer cell lines; settings: whole-cell lysates, 24 h, staurosporine as positive control, Figure 1C
Method: The cells were plated in 6-well plates at a density of 1 × 10^6 cells per well. After incubating overnight, the cells were treated with HPA3P at the indicated concentration. After incubating for 6 h or 24 h, the cells were scraped, and the proteins were quantified by the Bradford method. The proteins were resolved on SDS-PAGE and transferred to PVDF membranes (Millipore, Bedford, USA). The blots were blocked with TBST containing 5% skim milk for 1 h, after which the membranes were incubated overnight at 4°C with primary antibodies against cleaved caspase-3 (#9664), PARP (#9542, Cell Signaling Technology, MA, USA), HMGB1 (ab18256, Abcam, Cambridge, UK), and GAPDH (SC-25778, Santa Cruz, CA, USA). The blots were then washed with TBST buffer and incubated with a secondary horseradish peroxidase-conjugated antibody (Santa Cruz, CA, USA). The reaction was detected using a Clarity™ Western ECL Substrate (BioRad, CA, USA).

RIPK3 = RIPK3 expression, western blot in HCT116 p53+/+ cells; settings: 3 μM GSK΄872 pretreatment, Figure 5C
Method: Figure 5 Low concentrations of HPA3P induce RIPK3-dependent necroptosis in HCT116 p53^+/+ cells (A) HCT116 p53^+/+ cells were treated with HPA3P for 6 h. The cell lysates were analysed for RIPK1 and RIPK3 expression by western blotting. The cells were pretreated with 30 μM Nec-1s (B) or 3 μM GSK΄872 (C) for 2 h and (D) transfected with negative-control (scramble), RIPK1, RIPK3, and MLKL siRNA for 24 h. The cells were subsequently treated with HPA3P. HPA3P-induced cytotoxicity was measured by MTT assay. (B–D) The cells were treated with Nec-1s or GSK΄872, and transfected with siRNA for 24 h. The cell lysates were analysed by western blot analysis. (E) The cells were treated with 3 μM GSK΄872 for 2 h and subsequently treated with 30 μM HPA3P for 6 h. The cells were stained with PI for flow cytometric analysis. […] RIPK3 expression was analysed by western blotting. […] Cell viability was measured by MTT assay. ^*p < 0.05, ^**p < 0.01 indicate a significant difference between the indicated groups. […] (H) The colon cancer cell lysates used in this study were analysed by western blotting. […]
The cells were plated in 6-well plates at a density of 1 × 10^6 cells per well. […] After incubating for 6 h or 24 h, the cells were scraped, and the proteins were quantified by the Bradford method. […] The reaction was detected using a Clarity™ Western ECL Substrate (BioRad, CA, USA). […]

HCT116 p53+/+ cells [2] = assay: MTT assay, HCT116 p53+/+; settings: for restoration of cell viability in HPA3P-treated cells: pretreated with 30 μM Nec-1s or 3 μM GSK΄872 for 2 h, then HPA3P, Figure 5B-5C
Method: The cell lysates were analysed for RIPK1 and RIPK3 expression by western blotting. […] The cells were subsequently treated with HPA3P. HPA3P-induced cytotoxicity was measured by MTT assay. […] The cell lysates were analysed by western blot analysis. […] The cells were stained with PI for flow cytometric analysis. (F) The cells were treated with 30 μM HPA3P for the indicated times. RIPK3 expression was analysed by western blotting. […] Cell viability was measured by MTT assay. ^*p < 0.05, ^**p < 0.01 indicate a significant difference between the indicated groups. NS, not significant. (H) The colon cancer cell lysates used in this study were analysed by western blotting. (I) Schematic diagram of HPA3P-induced necroptosis.
(§1) The cells were plated in 96-well plates at a density of 2 × 10^4 cells per well. After incubating overnight, the cells were treated with HPA3, HPA3P, HPA3P2, oxaliplatin, and 5-FU at various concentrations. After the cells had incubated for 6 h or 24 h, the culture medium was replaced with fresh medium. Twenty microlitres of a 5 mg/ml stock solution of 3-(4,5-dimetylthiazol-2-yl)-2,5-diphenyltetrazolium bromide (Sigma Aldrich) was added to each well, and the cells were incubated for 1 h at 37°C in a humidified atmosphere of 5% CO2. After removal of the supernatant, 100 μl of DMSO was added to each well. The plates were subsequently incubated on a horizontal shaker for 20 min at room temperature, and the optical density was measured at an absorbance of 570 nm using a microplate reader (SPECTRA MAX PLUS, Molecular Devices, CA, USA).

HCT116 p53+/+ cells [3] = assay: PI staining analysed by flow cytometry, HCT116 p53+/+; settings: 3 μM GSK΄872 for 2 h and/or 30 μM HPA3P for 6 h, Figure 5E
Method: Figure 3 HPA3P-induced necrosis and morphological changes in human colon cancer cell lines All cell lines were treated with HPA3P for 30 min and then stained with Hoechst 33342/PI or PI alone. (A) Pictures of Hoechst 33342/PI-stained cells were taken using an Olympus IX71 fluorescence microscope (magnification LCAch N 20X). (B) PI-stained cells were analysed by flow cytometry. (C) Morphological changes in colon cancer cells treated with HPA3P for 5 min were observed using an Olympus IX71 light microscope (magnification LUCPlaFL N 40X). The black arrows indicate membrane blebs. […] Morphological changes were observed under an Olympus IX71 fluorescence microscope (magnification LUCPlaFL N 40X). […]
Figure 5 Low concentrations of HPA3P induce RIPK3-dependent necroptosis in HCT116 p53^+/+ cells (A) HCT116 p53^+/+ cells were treated with HPA3P for 6 h. The cell lysates were analysed for RIPK1 and RIPK3 expression by western blotting. […] HPA3P-induced cytotoxicity was measured by MTT assay. […] The cell lysates were analysed by western blot analysis. […] RIPK3 expression was analysed by western blotting. […] Cell viability was measured by MTT assay. ^*p < 0.05, ^**p < 0.01 indicate a significant difference between the indicated groups. […] (H) The colon cancer cell lysates used in this study were analysed by western blotting. […]

colon cancer cell lines = assay: MTT assay, cell viability in colon cancer cell lines; settings: comparison of HPA3P with anticancer drugs
Method: as §1

LoVo cells = assay: MTT assay, LoVo; settings: 24 h, Figure 4E
Method: as §1

HT-29 cells = assay: MTT assay, HT-29; settings: HT-29, 24 h, Figure 4E
Method: as §1

SW480 cells = assay: MTT assay, SW480; settings: SW480, 24 h, Figure 4E
Method: as §1

SMILES: CN[C@@H]1C[C@H]2O[C@@](C)([C@@H]1OC)n1c3ccccc3c3c4c(c5c6ccccc6n2c5c31)C(=O)NC4 [staurosporine]
- cleaved-caspase 3 and cleaved-PARP [1]: detected

SMILES: CC(C)S(=O)(=O)c1ccc2nccc(Nc3ccc4scnc4c3)c2c1 [GSK΄872]
- effect on HPA3P-induced increases in RIPK3 expression (RIPK3): inhibited
- protective effect on HPA3P-mediated cytotoxicity (HCT116 p53+/+ cells [2]; pretreated with 3 μM GSK΄872 for 2 h, then HPA3P for 24 h, Figure 5G): inhibited HPA3P-induced cytotoxicity
- restoration of cell viability in HPA3P-treated cells (HCT116 p53+/+ cells [2]): restored cell viability
- PI staining, gate P1 (HCT116 p53+/+ cells [3]): 91.47%
- PI staining, gate P2 (HCT116 p53+/+ cells [3]): 7.34%

SMILES: O=c1[nH]cc(F)c(=O)[nH]1 [5-FU]
- cell viability (colon cancer cell lines; 6 h, Figure 4D): no effect on cell viability
- cell viability (colon cancer cell lines; 24 h, Figure 4E): no effect on cell viability

SMILES: CN1C(=O)NC(Cc2c[nH]c3c(Cl)cccc23)C1=O (centres unmarked) [Nec-1s]
- restoration of cell viability in HPA3P-treated cells (HCT116 p53+/+ cells [2]): did not restore cell viability

SMILES: O=C1[O][Pt]2([NH][C@@H]3CCCC[C@H]3[NH]2)[O]C1=O [oxaliplatin, Oxaliplatin]
- cell viability (LoVo cells): significant decrease in cell viability
- cell viability (HT-29 cells): reduced cell viability only slightly
- cell viability (SW480 cells): significant decrease in cell viability
- cell viability (HCT116 p53+/+ cells [2]; 24 h, Figure 4E): significant decrease in cell viability
- cell viability (colon cancer cell lines; 6 h, Figure 4D): no effect on cell viability
